Test results as given in patent publication US12509446B2, “FYN and VEGFR2 kinase inhibitors” (ROTTAPHARM BIOTECH S.R.L., priority 2019, dated 2025).
Read-outs that look alike come from different tables or passages of the source.

Columns and labels:
NF-kB = experiment: Gene reporter (GR) assay, NF-kB activation after TNFα in JB6 Cl 41-5a (P+) cells; assay type: cell-based, murine; settings: for IC50: TNFα 2 ng/ml, non toxic concentrations, read-out: Gene reporter (GR) inhibition IC50
Text: To determine if the compounds of the invention were active also in a cellular model, a gene reporter assay was established in a cell line (JB6 Cl 41-5a (P+)) know to activate Fyn kinase via an inflammatory stimuli (TNFα). GR assay measures the activation of the nuclear transcription factor NF-kB, situated down-stream the Fyn activation pathway. Products active in this analysis has to penetrate in the cell and inhibit the activation pathway of NF-kB.
The murine epithelial cell line JB6 Cl 41-5a (P+) (ATCC® Cat. #CRL-2010) was stably transfected with the pGL4.32[luc2P/NFkB-RE/Hygro] vector (Promega). Clonal selection was achieved by limiting with 80 μg/ml Hygromycin B. The clones were tested for their response to TNFα stimulus.
JB6(P+) NFkB-RE-luc2P transfected cells were used for the analysis of NF-kB activity modulation, after TNFα stimulation, by Fyn-inhibitors.
Cells were pre-treated with the different compounds for 1 h and then stimulated with 2 ng/ml TNFα for 4 h. Each tested condition was analyzed in quadruplicate.
The luciferase analysis was performed with ONE-Glo™+ToxLuciferase Reporter and Cell Viability Assay kit (Promega).

IL-1β = experiment: Gene expression in rat articular chondrocytes under IL-1β stimulation, IL-1β; assay type: cell-based; settings: for IC50: Rattus norvegicus, Chondrocyte, 6 h incubation; for IL-1β gene expression, percentage of inhibitory effect at the highest non toxic concentration: 6 h
Procedure: (§1) For gene expression analysis, 10 days after plating, the medium was changed and substituted with DMEM GlutaMAX I 0.4% to synchronize the cells. The cells were then co-treated in DMEM GlutaMAX I 0.4% with different concentrations of the test compounds and […] at a final concentration of 2 ng/ml for 6 h and 24 h. The test compound concentrations used have been chosen on the basis of the toxicity data.
(§2) At the end of the incubation, the supernatant was discarded, the cell were washed with cold PBS1X and scraped with 200 μl of RNA lysis buffer 1X (Nucleic Acid Purification Lysis Solution, Applied Biosystems).
(§3) Total RNA was purified using ABI Prism™ 6100 Nucleic Acid PrepStation (Applied Biosystems) following manufacturer's instructions.
(§4) Total RNA was retrotranscribed using the High-Capacity cDNA Archive Kit (Applied Biosystems-Thermo Fisher Scientific) following manufacturer's instructions.
(§5) The specific probes and primers for RealTime PCR were from Applied Biosystems (Thermo Fisher Scientific) as Assays-on-Demand™, while the probe and primers for the endogenous control 18S was a PDAR (Pre-Developed TaqMan® Assay Reagents—Applied Biosystems-Thermo Fisher Scientific).
(§6) The assays were designed to amplify target cDNA without amplifying genomic DNA.
(§7) Gene expression analysis for IL-1β, IL-6 and ADAMTS-5 were performed at 6 h incubation, while the gene expression analysis for MMP3, MMP13 and COX2 were performed at 24 h incubation.
(§8) For each compound the maximal concentration tested was dependent on the toxicity results obtained on primary rat chondrocytes.
(§9) The data analysis, with the normalisation on the amplified values for the 18S was done following the specific instruction of Applied Biosystems for the relative quantification of gene expression.

IL-6 = experiment: Gene expression in rat articular chondrocytes under IL-1β stimulation, IL-6; assay type: cell-based; settings: for IC50: Rattus norvegicus, Chondrocyte, 6 h incubation; for IL-6 gene expression, percentage of inhibitory effect at the highest non toxic concentration: 6 h
Procedure: as §1, §2, §3, §4, §5, §6, §7, §8, §9

COX2 = experiment: Gene expression in rat articular chondrocytes under IL-1β stimulation, COX2; assay type: cell-based; settings: for COX2 gene expression, percentage of inhibitory effect at the highest non toxic concentration: 24 h
ADAMTS-5 = experiment: Gene expression in rat articular chondrocytes under IL-1β stimulation, ADAMTS-5; assay type: cell-based; set-up: key to ADAMTS-5 gene expression, no effect: ne: no effect; settings: for IC50: Rattus norvegicus, Chondrocyte, 6 h incubation
Procedure: as §1, §2, §3, §4, §5, §6, §7, §8, §9

MMP3 = experiment: Gene expression in rat articular chondrocytes under IL-1β stimulation, MMP3; assay type: cell-based; set-up: key to MMP3 gene expression, no effect: ne: no effect; settings: for MMP3 gene expression, no effect: 24 h; for IC50: Rattus norvegicus, Chondrocyte, 24 h incubation
Procedure: as §1, §2, §3, §4, §5, §6, §7, §8, §9

MMP13 = experiment: Gene expression in rat articular chondrocytes under IL-1β stimulation, MMP13; assay type: cell-based; set-up: key to MMP13 gene expression, no effect: ne: no effect
Procedure: as §1, §2, §3, §4, §5, §6, §7, §8, §9

[1] = system: bovine nasal septum cartilage; experiment: Inhibition of cartilage degradation (GAG release) induced by IL-1α in a bovine in vitro model; assay type: cell-based; settings: Bos taurus, read-out: Bovine cartilage degradation induced by IL-1α, % inhibitory effect at max concentration
Procedure: Nasal septum cartilage was collected from an eight months-old male bovine in a local slaughterhouse.
Tissue was sprayed with ethanol 70% and immediately put in sterile PBS with Antibiotic-Antimycotic stabilized solution (PBS-AASS). It was cut in order to obtain small punches (diameter 2 mm, 1 mm-thick). washed with sterile PBS-AASS, the slices were transferred in a 96X well plate (one piece per well) in DMEM 10%+AASS. 48 h later the cartilage was stimulated in white DMEM+0.1% BSA+AASS with IL-1α […] in the absence or presence of the studied compounds.
The compounds concentration used in this analysis was chosen depending on the toxicity results obtained in rat primary chondrocytes at 48 h of incubation.
After 48 h stimulation, the culture medium was collected and stored at −80° C. The cartilage punches were digested with papain at 65° C. for 2 h in phosphate buffer (0.05M pH 6.5 with 2 mM N-acetil-L-cisteine and 2 mM EDTA).
The glycosaminoglycan (GAG) determination was done by a colorimetric assay with 1,9 dimethyl methylene blue (DMB).
Digested cartilage samples were diluted in PBS-BSA 1%. To 100 μl of diluted samples or standard we added 100 μl DMB 2X. After 5-20 min incubation the samples were read at 590 nm (Titertek Multiscan Plus).
The cartilage degradation induced by IL-1α was expressed as: GAG (medium)/total GAG (medium+cartilage)×100

[2] = system: rat primary articular chondrocytes; experiment: Toxicity analysis (MTT) in rat primary chondrocytes; settings: for First toxic concentration at 24 h: rat primary chondrocytes
Fyn = Fyn (Homo sapiens (Human), UniProt P06241); experiment: Z′-LYTE in vitro Fyn kinase activity assay; assay type: biochemical; settings: ATP 50 μM; read-out: FYN KINASE INHIBITION IC50
Procedure: The Fyn kinase inhibitory activity of representative examples of compounds of Formula (1) was evaluated by Z′-LYTE™ Kinase Assay Platform (Invitrogen). Compounds were evaluated towards active Fyn (full length active, molecular weight 87.1 kDa; Invitrogen). […] Samples representing the 0% inhibition (or total enzymatic activity) were in the presence of compound diluent (1% DMSO final in Reaction Buffer 50 mMHepes, 10 mM MgCl2, 1 mM EGTA, 0.01% Brij-35, pH 7.5). The kinase reaction was carried out in a total volume of 10 μl, for 60 minutes at 25° C. The 0% Phosphorylation (i.e. no ATP) and 100% Phosphorylation Assay Controls, included in each plate, allowed to calculate the percent phosphorylation achieved in the specific reaction well. Results are expressed as percentage of inhibition and the IC50 values were calculated by non-linear curve fitting using GraphPad™ Prism software (version 6 for Windows).

VEGFR2 = VEGFR2 (Homo sapiens (Human), UniProt P35968); experiment: In vitro VEGFR2 kinase activity assay (Eurofins Cerep); assay type: biochemical; settings: read-out: VEGFR2 KINASE INHIBITION IC50
Procedure: The VEGFR2 kinase inhibitory activity of representative examples of compounds of Formula (I) assays was evaluated in Eurofins Cerep (France). The concentration range of the inhibitors under investigation was from 10^−8 M up to 10^−5 M final concentration. Some compounds were re-tested in a concentration-range starting from 10^−9 M. The results are expressed as a percent of control activity (in the absence of test compound) and the IC50 values were determined by non-linear regression analysis of the inhibition/concentration curves generated with mean replicate values.

[3] = Rattus norvegicus, Chondrocyte, 24 h incubation

Sequence of VEGFR2 (P35968 20-1356): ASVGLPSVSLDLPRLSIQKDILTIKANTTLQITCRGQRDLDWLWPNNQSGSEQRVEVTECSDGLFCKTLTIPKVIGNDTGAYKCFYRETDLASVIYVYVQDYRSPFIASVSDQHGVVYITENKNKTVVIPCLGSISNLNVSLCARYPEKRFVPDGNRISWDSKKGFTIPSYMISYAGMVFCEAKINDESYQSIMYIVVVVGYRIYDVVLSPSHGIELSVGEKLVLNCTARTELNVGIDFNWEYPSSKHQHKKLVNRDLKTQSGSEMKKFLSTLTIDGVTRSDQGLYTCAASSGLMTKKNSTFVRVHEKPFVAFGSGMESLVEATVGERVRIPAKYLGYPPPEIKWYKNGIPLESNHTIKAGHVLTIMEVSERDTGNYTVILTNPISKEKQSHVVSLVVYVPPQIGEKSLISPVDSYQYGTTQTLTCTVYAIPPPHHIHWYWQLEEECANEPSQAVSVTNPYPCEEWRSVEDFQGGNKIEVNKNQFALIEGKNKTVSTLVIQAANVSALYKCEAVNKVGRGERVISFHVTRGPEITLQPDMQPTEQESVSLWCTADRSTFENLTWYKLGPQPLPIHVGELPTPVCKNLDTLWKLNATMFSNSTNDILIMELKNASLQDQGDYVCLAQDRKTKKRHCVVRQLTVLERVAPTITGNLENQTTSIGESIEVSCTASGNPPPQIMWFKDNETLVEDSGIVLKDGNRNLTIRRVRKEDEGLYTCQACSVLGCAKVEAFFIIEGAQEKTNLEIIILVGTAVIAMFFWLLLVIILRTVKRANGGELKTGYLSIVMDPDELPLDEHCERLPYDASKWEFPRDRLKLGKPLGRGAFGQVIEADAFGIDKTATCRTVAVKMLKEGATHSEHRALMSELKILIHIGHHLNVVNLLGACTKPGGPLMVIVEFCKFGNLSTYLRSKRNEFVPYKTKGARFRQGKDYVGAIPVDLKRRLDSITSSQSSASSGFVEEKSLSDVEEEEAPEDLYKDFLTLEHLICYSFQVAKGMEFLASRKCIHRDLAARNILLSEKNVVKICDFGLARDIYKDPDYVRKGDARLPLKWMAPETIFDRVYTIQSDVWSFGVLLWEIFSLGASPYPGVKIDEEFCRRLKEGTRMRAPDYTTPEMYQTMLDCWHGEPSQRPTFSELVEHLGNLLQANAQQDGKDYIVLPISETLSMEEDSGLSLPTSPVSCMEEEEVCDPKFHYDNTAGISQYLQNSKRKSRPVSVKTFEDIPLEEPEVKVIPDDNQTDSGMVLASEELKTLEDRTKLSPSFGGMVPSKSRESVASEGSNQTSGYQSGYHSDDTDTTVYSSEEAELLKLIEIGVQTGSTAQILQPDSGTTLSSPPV
Sequence of Fyn (P06241 whole entry): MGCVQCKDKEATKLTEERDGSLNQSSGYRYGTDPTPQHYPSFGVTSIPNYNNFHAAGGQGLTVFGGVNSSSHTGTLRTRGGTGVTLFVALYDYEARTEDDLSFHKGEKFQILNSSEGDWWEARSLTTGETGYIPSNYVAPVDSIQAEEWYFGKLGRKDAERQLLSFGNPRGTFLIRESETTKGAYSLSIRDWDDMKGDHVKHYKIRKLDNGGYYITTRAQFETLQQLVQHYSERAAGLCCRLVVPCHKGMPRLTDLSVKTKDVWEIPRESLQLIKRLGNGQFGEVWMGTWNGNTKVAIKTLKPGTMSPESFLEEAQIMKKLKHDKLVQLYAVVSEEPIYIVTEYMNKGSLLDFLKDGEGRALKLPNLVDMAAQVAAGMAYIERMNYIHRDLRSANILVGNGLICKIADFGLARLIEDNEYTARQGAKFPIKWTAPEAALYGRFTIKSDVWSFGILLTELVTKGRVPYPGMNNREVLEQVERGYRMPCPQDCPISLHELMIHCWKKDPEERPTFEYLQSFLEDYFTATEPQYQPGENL

IC50 (IL-1β)	IC50 (Fyn)	IC50 (VEGFR2)	SMILES	IC50 (NF-kB; Mus musculus, JB6 Cl 41-5a)	MMP3 gene expression, no effect (MMP3)	First toxic concentration at 24 h [2]	COX2 gene expression, percentage of inhibitory effect at the highest non toxic concentration (COX2; 1 μM)	other results
2100 nM	–	–	Cc1ccc(NC(=O)c2cccc(S(C)(=O)=O)c2)cc1CCc1cc(Nc2cnccn2)[nH]n1 [Compound 1, N-(4-methyl-3-(2-(5-(pyrazin-2-ylamino)-1H-pyrazol-3-yl)ethyl)phenyl)-3-(methylsulfonyl)benzamide]	5080 nM	ne	>10 µM	–	IC50 (IL-6): 1600 nM; IC50 (COX2; [3]): 3100 nM; ADAMTS-5 gene expression, percentage of inhibitory effect at the highest non toxic concentration (ADAMTS-5; 10 μM, 6 h): 10 μM 38%; MMP13 gene expression, percentage of inhibitory effect at the highest non toxic concentration (MMP13; 10 μM, 24 h): 10 μM 38%; inhibition at 3 µM ([1]; 3 μM): 88%; First toxic concentration at 48 h in rat primary chondrocytes [2]: 10 µM
300 nM	20 nM	< 10 nM	Cc1ccc(NC(=O)c2cc(S(=O)(=O)C3CC3)ccn2)cc1CCc1cc(Nc2cnccn2)[nH]n1 [Compound 8, 4-(cyclopropylsulfonyl)-N-(4-methyl-3-(2-(5-(pyrazin-2-ylamino)-1H-pyrazol-3-yl)ethyl)phenyl)picolinamide]	< 250 nM	ne	3 µM	1 μM 63%	IC50 (NF-kB): 233 nM; IL-6 gene expression, percentage of inhibitory effect at the highest non toxic concentration (IL-6; 1 μM): 1 μM 99%; ADAMTS-5 gene expression, no effect (ADAMTS-5; 6 h): ne; MMP13 gene expression, no effect (MMP13; 24 h): ne
–	143 nM	–	Cc1ccc(NC(=O)c2cccc(C(F)(F)F)c2)cc1CCc1cnc(Nc2cnccn2)s1 [Compound 49, N-(4-methyl-3-(2-(2-(pyrazin-2-ylamino)thiazol-5-yl)ethyl)phenyl)-3-(trifluoromethyl) benzamide]	422 nM	–	3 µM	1 μM 93%	IL-1β gene expression, percentage of inhibitory effect at the highest non toxic concentration (IL-1β; 1 μM): 1 μM 91%; IL-6 gene expression, percentage of inhibitory effect at the highest non toxic concentration (IL-6; 1 μM): 1 μM 100%; IC50 (ADAMTS-5): 200 nM; IC50 (MMP3): 500 nM; IC50 (MMP13; [3]): 240 nM; inhibition at 1 µM ([1]; 1 μM): 35%; First toxic concentration at 48 h in rat primary chondrocytes [2]: 3 µM
–	1 nM	11 nM	Cc1nc(C#N)cc(Nc2cc(CCc3cc(NC(=O)c4ccc(CN(C)C)c(C(F)(F)F)c4)ccc3F)n[nH]2)n1 [Compound 39, N-(3-(2-(5-((6-cyano-2-methylpyrimidin-4-yl)amino)-1H-pyrazol-3-yl)ethyl)-4-fluorophenyl)-4-((dimethylamino)methyl)-3-(trifluoromethyl)benzamide]	1060 nM	–	10 µM	–	IL-1β gene expression, percentage of inhibitory effect at the highest non toxic concentration (IL-1β; 3 μM): 3 μM 100%; IL-6 gene expression, percentage of inhibitory effect at the highest non toxic concentration (IL-6; 3 μM): 3 μM 100%; COX2 gene expression, percentage of inhibitory effect at the highest non toxic concentration (COX2; 3 μM): 3 μM 99%; IC50 (ADAMTS-5): 500 nM; IC50 (MMP3): 1200 nM; MMP13 gene expression, percentage of inhibitory effect at the highest non toxic concentration (MMP13; 3 μM, 24 h): 3 μM 90%
100 nM	63 nM	< 10 nM	Cc1ccc(NC(=O)c2cc(C(F)(F)F)ccc2F)cc1CCc1cc(Nc2cnccn2)[nH]n1 [Compound 7, 2-fluoro-N-(4-methyl-3-(2-(5-(pyrazin-2-ylamino)-1H-pyrazol-3-yl)ethyl)phenyl)-5-(trifluoromethyl)benzamide]	1160 nM	ne	3 µM	1 μM 41%	IC50 (IL-6): 200 nM; ADAMTS-5 gene expression, percentage of inhibitory effect at the highest non toxic concentration (ADAMTS-5; 1 μM, 6 h): 1 μM 81%; MMP13 gene expression, percentage of inhibitory effect at the highest non toxic concentration (MMP13; 1 μM, 24 h): 1 μM 38%
–	16 nM	< 10 nM	CC(C)Cc1ccc(C(=O)Nc2ccc(F)c(CCc3cc(NC(=O)c4ncccn4)[nH]n3)c2)cn1 [Compound 9, N-(3-(2-fluoro-5-(6-isobutylnicotinamido)phenethyl)-1H-pyrazol-5-yl)pyrimidine-2-carboxamide]	–	–	–	–	inhibition at 10 µM (NF-kB; Mus musculus, JB6 Cl 41-5a, 10 μM, read-out: Gene reporter (GR) inhibition % effect at max concentration): 47%
–	8 nM	< 10 nM	Cc1ccc(NC(=O)c2cc(C(C)(C)C#N)ccn2)cc1CCc1cc(Nc2cnccn2)[nH]n1 [Compound 41, 4-(2-cyanopropan-2-yl)-N-(4-methyl-3-(2-(5-(pyrazin-2-ylamino)-1H-pyrazol-3-yl)ethyl)phenyl)picolinamide]	327 nM	–	–	–	–
